# Data: ChEMBL document CHEMBL3259563, “The discovery of potent and selective non-steroidal glucocorticoid receptor modulators, suitable for inhalation” (Bioorg Med Chem Lett, 2014)
# Key:
# [1] = Lipophilicity, log D of the compound at pH 7.4; type: physicochemical; conditions: buffer
# [2] = Volume of distribution at steady state in iv dosed rat; type: ADME, organism-based; conditions: in vivo, read-out: Vdss
# Cytochrome P450 3A4 = Cytochrome P450 3A4 (Homo sapiens, UniProt P08684); test: Inhibition of CYP3A4 (unknown origin); type: ADME
# Plasma = test: Fraction unbound in human plasma; type: ADME, cell-free
# Cytochrome P450 2C9 = Cytochrome P450 2C9 (Homo sapiens, UniProt P11712); test: Inhibition of CYP2C9 (unknown origin); type: ADME
# Progesterone receptor = target: T1, Progesterone receptor (Homo sapiens, UniProt P06401); test: Binding affinity to progesterone receptor (unknown origin)
# T1 sequence (P06401 whole entry): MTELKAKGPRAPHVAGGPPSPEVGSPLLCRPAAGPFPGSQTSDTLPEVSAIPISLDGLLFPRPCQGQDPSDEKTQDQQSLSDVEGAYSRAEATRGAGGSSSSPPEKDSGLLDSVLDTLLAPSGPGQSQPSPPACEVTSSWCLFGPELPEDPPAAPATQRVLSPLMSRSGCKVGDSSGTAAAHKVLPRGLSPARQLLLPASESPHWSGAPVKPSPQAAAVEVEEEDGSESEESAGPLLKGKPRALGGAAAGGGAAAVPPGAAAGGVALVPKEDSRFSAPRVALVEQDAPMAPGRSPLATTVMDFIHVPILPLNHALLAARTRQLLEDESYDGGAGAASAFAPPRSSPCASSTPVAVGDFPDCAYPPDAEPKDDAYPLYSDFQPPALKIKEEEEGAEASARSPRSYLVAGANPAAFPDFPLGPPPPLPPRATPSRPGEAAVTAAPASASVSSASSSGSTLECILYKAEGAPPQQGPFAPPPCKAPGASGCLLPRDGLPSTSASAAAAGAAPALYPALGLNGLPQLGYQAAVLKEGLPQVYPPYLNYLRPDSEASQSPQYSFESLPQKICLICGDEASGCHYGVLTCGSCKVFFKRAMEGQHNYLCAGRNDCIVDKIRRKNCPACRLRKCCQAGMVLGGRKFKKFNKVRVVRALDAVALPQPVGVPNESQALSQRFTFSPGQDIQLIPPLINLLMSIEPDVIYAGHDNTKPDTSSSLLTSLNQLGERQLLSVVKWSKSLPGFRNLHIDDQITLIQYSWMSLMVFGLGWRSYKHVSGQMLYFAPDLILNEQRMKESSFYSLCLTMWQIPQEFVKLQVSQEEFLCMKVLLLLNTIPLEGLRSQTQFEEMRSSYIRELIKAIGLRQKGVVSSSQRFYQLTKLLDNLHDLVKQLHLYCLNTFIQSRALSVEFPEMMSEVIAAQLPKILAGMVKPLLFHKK
# [3] = Clearance in iv dosed rat; type: ADME, organism-based; conditions: in vivo
# Cytochrome P450 1A2 = target: T2, Cytochrome P450 1A2 (Homo sapiens, UniProt P05177); test: Inhibition of CYP1A2 (unknown origin); type: ADME
# T2 sequence (P05177 whole entry): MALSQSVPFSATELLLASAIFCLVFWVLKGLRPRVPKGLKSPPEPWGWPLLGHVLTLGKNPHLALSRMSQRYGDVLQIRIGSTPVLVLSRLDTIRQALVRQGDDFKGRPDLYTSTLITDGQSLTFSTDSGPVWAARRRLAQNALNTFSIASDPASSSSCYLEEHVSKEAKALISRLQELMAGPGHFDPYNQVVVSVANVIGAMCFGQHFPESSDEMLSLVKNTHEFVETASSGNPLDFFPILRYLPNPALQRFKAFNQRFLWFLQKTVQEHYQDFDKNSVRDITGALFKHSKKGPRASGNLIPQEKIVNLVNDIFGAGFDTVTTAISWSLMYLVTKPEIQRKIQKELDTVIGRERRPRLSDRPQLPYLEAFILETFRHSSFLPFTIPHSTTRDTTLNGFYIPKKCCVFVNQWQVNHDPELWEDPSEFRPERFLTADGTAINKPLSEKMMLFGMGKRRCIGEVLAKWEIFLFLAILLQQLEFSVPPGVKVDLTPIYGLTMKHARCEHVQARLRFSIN
# Glucocorticoid receptor = target: T3, Glucocorticoid receptor (Rattus norvegicus, UniProt P06536); test: Agonist activity at glucocorticoid receptor in rat PBMC assessed as inhibition of LPS-stimulated TNF-alpha release
# T3 sequence (P06536 whole entry): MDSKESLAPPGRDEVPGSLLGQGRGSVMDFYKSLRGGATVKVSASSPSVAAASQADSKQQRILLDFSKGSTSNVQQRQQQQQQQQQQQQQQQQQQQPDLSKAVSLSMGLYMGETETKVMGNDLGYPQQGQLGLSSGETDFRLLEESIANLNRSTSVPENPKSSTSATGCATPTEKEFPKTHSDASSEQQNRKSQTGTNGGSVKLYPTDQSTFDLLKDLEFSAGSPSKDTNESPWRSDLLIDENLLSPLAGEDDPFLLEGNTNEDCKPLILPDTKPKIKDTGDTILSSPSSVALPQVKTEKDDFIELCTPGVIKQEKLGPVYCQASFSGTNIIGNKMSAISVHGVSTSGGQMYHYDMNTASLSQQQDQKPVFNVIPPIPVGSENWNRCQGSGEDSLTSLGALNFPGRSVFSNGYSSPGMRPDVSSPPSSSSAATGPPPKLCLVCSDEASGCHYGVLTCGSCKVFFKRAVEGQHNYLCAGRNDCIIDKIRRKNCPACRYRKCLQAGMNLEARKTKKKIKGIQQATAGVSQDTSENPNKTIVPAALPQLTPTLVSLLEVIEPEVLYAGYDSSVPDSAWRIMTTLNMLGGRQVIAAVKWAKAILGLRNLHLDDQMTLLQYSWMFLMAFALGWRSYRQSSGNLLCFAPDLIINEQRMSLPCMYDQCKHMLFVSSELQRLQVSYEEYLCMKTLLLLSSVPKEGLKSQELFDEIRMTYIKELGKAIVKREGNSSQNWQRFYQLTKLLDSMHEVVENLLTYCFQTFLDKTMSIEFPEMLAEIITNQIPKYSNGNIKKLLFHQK
# Chain of Cytochrome P450 3A4 (P08684 whole entry): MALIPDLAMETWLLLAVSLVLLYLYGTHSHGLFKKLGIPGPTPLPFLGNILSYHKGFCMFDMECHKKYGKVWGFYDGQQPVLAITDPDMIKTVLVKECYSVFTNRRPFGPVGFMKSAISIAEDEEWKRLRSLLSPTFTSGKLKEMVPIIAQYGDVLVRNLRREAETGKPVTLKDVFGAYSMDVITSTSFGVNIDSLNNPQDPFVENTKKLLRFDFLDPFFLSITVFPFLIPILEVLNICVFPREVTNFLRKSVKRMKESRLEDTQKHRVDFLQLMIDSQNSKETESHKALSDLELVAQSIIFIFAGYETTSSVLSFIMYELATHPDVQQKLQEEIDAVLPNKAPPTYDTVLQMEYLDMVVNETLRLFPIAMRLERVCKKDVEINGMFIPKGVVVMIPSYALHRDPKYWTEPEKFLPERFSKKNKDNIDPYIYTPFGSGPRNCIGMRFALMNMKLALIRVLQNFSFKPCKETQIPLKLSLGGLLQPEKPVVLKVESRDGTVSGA
# Chain of Cytochrome P450 2C9 (P11712 whole entry): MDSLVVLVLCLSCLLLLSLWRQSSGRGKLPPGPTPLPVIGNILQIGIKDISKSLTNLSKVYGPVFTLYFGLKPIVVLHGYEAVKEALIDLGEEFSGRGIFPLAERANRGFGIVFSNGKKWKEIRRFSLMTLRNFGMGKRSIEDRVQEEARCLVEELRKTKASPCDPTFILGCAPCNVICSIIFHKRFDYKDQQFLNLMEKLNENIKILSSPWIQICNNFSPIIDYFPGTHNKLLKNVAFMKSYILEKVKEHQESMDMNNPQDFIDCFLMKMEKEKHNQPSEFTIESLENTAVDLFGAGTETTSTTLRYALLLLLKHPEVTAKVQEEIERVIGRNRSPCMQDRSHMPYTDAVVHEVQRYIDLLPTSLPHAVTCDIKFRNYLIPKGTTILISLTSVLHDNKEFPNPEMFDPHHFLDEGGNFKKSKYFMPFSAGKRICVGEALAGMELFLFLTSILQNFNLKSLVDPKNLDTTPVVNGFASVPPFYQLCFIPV
structure (smiles),measurement,setting,value
Cc1nn(C2CCCC2)c(C)c1S(=O)(=O)N[C@@H](C)CNc1cccc2c1cnn2-c1ccc(F)nc1,logD,[1],3.7
same,Vd,[2],15 L/kg
same,IC50,Cytochrome P450 3A4,22 µM
same,Fu,Plasma,0.005%
same,IC50,Cytochrome P450 2C9,17 µM
same,IC50,Progesterone receptor,4.5 µM
same,clearance,[3],4.68 L/h/kg
same,IC50,Cytochrome P450 1A2,> 20 µM
same,IC50,Glucocorticoid receptor,0.0045 µM
